# Measured values taken from patent publication US10160748B2 (AbbVie Inc., priority 2015, dated 2018).
# Molecular target: TNFα trimer (Homo sapiens, UniProt P01375)
# Experiment: TNFα FP Competitive Binding Assay
# Conditions: FP binding assay; 20 nM TNFα trimer, 1 nM OregonGreen488 probe; read-out: TNF IC50
# In short: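 Compounds in 12-point 1:3 series, final top 100 μM (2.0% DMSO) or 338 μM (3.4% DMSO), displace 1 nM fluorescent probe from 20 nM TNFα trimer. After 18-24 h incubation plus 1 h rt equilibration, background-subtracted polarization measured and curves fitted with variable slope.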
# TNFα trimer, sequence (P01375 77-233 limits assumed): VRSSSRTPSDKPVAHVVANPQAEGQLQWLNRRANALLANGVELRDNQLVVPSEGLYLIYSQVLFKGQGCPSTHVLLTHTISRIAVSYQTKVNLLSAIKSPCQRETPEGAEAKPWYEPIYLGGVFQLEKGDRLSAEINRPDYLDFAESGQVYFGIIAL
row,IC50,SMILES
1,< 1000 nM,"Cn1c(=O)c2ccc(-c3cnc(N4CCN5C(=O)NC[C@H]5C4)nc3)cc2n1Cc1cc(CO)ccc1OC(F)F [Example 18, (S)-7-(5-(1-(2-(Difluoromethoxy)-5-(hydroxymethyl)benzyl)-2-methyl-3-oxo-2,3-dihydro-1H-indazol-6-yl)pyrimidin-2-yl)hexahydroimidazo[1,5-a]pyrazin-3(2H)-one]"
2,> 10000 nM,Cn1c(=O)c2ccc(-c3cnc(N4CCOCC4)nc3)cc2n1CCc1ccccc1F [Example 1.13]
3,> 10000 nM,Cn1c(=O)c2ccc(-c3cnc(N4CC[C@@H](C(=O)O)C4)nc3)cc2n1Cc1ccccc1OC(F)F [Example 2.6]
4,< 1000 nM,Cc1ccc(OC(F)F)c(Cn2c3cc(-c4cnc(C(C)(C)O)nc4C)c(F)cc3c(=O)n2C)c1 [Example 17.2]
5,1000 to 10000 nM,CC(=O)NCc1ccc(OC(F)F)c(Cn2c3cc(-c4cnc(N5CCN(C(C)=O)[C@H](C)C5)nc4)ccc3c(=O)n2C)c1 [Example 27.1]
6,< 1000 nM,"C[C@@H]1CN(c2ncc(-c3ccc4c(=O)n(C)n(Cc5ccccc5OC(F)F)c4c3)cn2)CCN1C(=O)[C@@H](O)CC(=O)O [Example 51, (S)-4-((R)-4-(5-(1-(2-(Difluoromethoxy)benzyl)-2-methyl-3-oxo-2,3-dihydro-1H-indazol-6-yl)pyrimidin-2-yl)-2-methylpiperazin-1-yl)-3-hydroxy-4-oxobutanoic acid]"
7,< 1000 nM,CC(=O)N1CCN(c2ncc(-c3ccc4c(=O)n(C)n(Cc5c[nH]cc5C(F)(F)F)c4c3)cn2)C[C@H]1C [Example 27.5]
8,1000 to 10000 nM,Cn1c(=O)c2ccc(-c3cnc(N[C@@H]4CCOC4)nc3)cc2n1Cc1ccccc1OC(F)F [Example 2.24]
9,< 1000 nM,"Cc1ccc(OC(F)F)c(Cn2c3cc(-c4cnc(C(C)C)nc4)ccc3c(=O)n2C)c1 [Example 124, 1-(2-(Difluoromethoxy)-5-methylbenzyl)-6-(2-isopropylpyrimidin-5-yl)-2-methyl-1H-indazol-3(2H)-one]"
10,1000 to 10000 nM,Cn1c(=O)c2ccc(-c3cnc(N4CCC(C(=O)O)CC4)nc3)cc2n1Cc1ccccc1OC(F)F [Example 5.5]
11,1000 to 10000 nM,Cn1c(=O)c2ccc(-c3cnc(C(C)(C)O)nc3)cc2n1Cc1ccccc1OC(F)F [Example 10.1]
12,< 1000 nM,"Cn1c(=O)c2ccc(-c3cnc(N4CCOCC4)nc3)cc2n1Cc1c(F)cccc1OC(F)F [Example 1, 1-(2-(Difluoromethoxy)-6-fluorobenzyl)-2-methyl-6-(2-morpholinopyrimidin-5-yl)-1H-indazol-3(2H)-one]"
13,1000 to 10000 nM,Cn1c(=O)c2ccc(-c3cnc(N4CC5(COC5)C4)nc3)cc2n1Cc1ccccc1OC(F)F [Example 2.4]
14,1000 to 10000 nM,CN(C)c1ncc(-c2ccc3c(=O)n(C)n(Cc4ccccc4OC(F)F)c3c2)cn1 [Example 10.15]
15,1000 to 10000 nM,Cc1ccc(OC(F)F)c(Cn2c3cc(-c4cnc(N5CCC[C@H]5CO)nc4)ccc3c(=O)n2C)c1 [Example 22.7]
16,< 1000 nM,"C[C@@H]1CN(c2ncc(-c3ccc4c(=O)n(C)n(Cc5ccccc5OC(F)F)c4c3)cn2)CCN1C(=O)CO [Example 10.6, (R)-1-(2-(difluoromethoxy)benzyl)-6-(2-(4-(2-hydroxyacetyl)-3-methylpiperazin-1-yl)pyrimidin-5-yl)-2-methyl-1H-indazol-3(2H)-one]"

row,IC50,SMILES
1,1000 to 10000 nM,"COCc1cccc(OC(F)F)c1Cn1c2cc(-c3cnc(C(C)(C)O)nc3)ccc2c(=O)n1C [Example 77, 1-(2-(Difluoromethoxy)-6-(methoxymethyl)benzyl)-6-(2-(2-hydroxypropan-2-yl)pyrimidin-5-yl)-2-methyl-1H-indazol-3(2H)-one]"
2,< 1000 nM,"[2H]C([2H])([2H])n1c(=O)c2ccc(-c3cnc(N4CCN5C(=O)OC[C@H]5C4)nc3)cc2n1Cc1cc(C)ccc1OC(F)F [Example 57, (R)-7-(5-(1-(2-(Difluoromethoxy)-5-methylbenzyl)-2-(methyl-d3)-3-oxo-2,3-dihydro-1H-indazol-6-yl)pyrimidin-2-yl)hexahydro-3H-oxazolo[3,4-a]pyrazin-3-one]"
3,1000 to 10000 nM,"Cc1ccc(OC(F)F)c(Cn2c3cc(-c4cnc(N5CCN[C@H](C)C5)nc4)ccc3c(=O)n2C)c1 [Example 14.5, (R)-1-(2-(difluoromethoxy)-5-methylbenzyl)-2-methyl-6-(2-(3-methylpiperazin-1-yl)pyrimidin-5-yl)-1H-indazol-3(2H)-one]"
4,< 1000 nM,"CC(c1c(F)cccc1F)n1c2cc(-c3cnc(N4CCN(C(=O)CO)[C@H](C)C4)nc3)ccc2c(=O)n1C (stereo partly drawn) [Example 28.1, 1-(1-(2,6-Difluorophenyl)ethyl)-6-(2-((R)-4-(2-hydroxyacetyl)-3-methylpiperazin-1-yl)pyrimidin-5-yl)-2-methyl-1H-indazol-3(2H)-one]"
5,< 1000 nM,"Cc1ccc(Cl)c(Cn2c3cc(-c4cnc(N5CCN6C(=O)NC[C@H]6C5)nc4)ccc3c(=O)n2C)c1 [Example 103, (S)-7-(5-(1(2-Chloro-5-methylbenzyl)-2-methyl-3-oxo-2,3-dihydro-1H-indazol-6-yl)pyrimidin-2-yl)hexahydroimidazo[1,5-a]pyrazin-3(2H)-one]"
6,> 10000 nM,Cn1c(=O)c2ccc(-c3ccnc(N4CCOCC4)c3)cc2n1Cc1ccccc1OC(F)F [Example 5.6]
7,1000 to 10000 nM,"COc1cc2c(=O)n(C)n(Cc3ccccc3OC(F)F)c2cc1-c1cnc(N2CCN(C(=O)CO)[C@H](C)C2)nc1 [Example 47, (R)-1-(2-(Difluoromethoxy)benzyl)-6-(2-(4-(2-hydroxyacetyl)-3-methylpiperazin-1-yl)pyrimidin-5-yl)-5-methoxy-2-methyl-1H-indazol-3(2H)-one]"
8,> 10000 nM,O=c1[nH]n(Cc2cc(Cl)ccc2Cl)c2cc(-c3cnc(N4CCOCC4)nc3)ccc12 [Example 9.1]
9,1000 to 10000 nM,Cn1c(=O)c2ccc(-c3cnc(N4CC(CO)C4)nc3)cc2n1Cc1ccccc1OC(F)F [Example 2.11]
10,< 1000 nM,Cc1ccc(OC(F)F)c(Cn2c3cc(-c4cnc(C(C)(C)O)nc4C)ccc3c(=O)n2C)c1 [Example 22.5]
11,1000 to 10000 nM,Cn1c(=O)c2ccc(-c3cnc(N4CCOCC4)nc3)cc2n1Cc1cc(F)ccc1OC(F)F [Example 1.6]
12,1000 to 10000 nM,Cc1ccc(OC(F)F)c(Cn2c3cc(-c4cnc(N5CCN6C(=O)NC[C@H]6C5)nc4)ccc3c(=O)n2C)n1 [Example 29.6]
13,< 1000 nM,COCC(=O)N1CCN(c2ncc(-c3ccc4c(=O)n(C)n(Cc5cc(C)ccc5OC(F)F)c4c3)cn2)C[C@H]1C [Example 21.1]
14,1000 to 10000 nM,"Cn1c(=O)c2ccc(-c3nc(N4CCOCC4)no3)cc2n1Cc1ccccc1OC(F)F [Example 13, 1-(2-(Difluoromethoxy)benzyl)-2-methyl-6-(3-morpholino-1,2,4-oxadiazol-5-yl)-1H-indazol-3(2H)-one]"
15,< 1000 nM,"C[C@@H]1CN(c2ncc(-c3ccc4c(=O)n(C)n([C@@H](C)c5ccccc5F)c4c3)cn2)CCN1C(=O)CO (single isomer, unassigned) [Example 85]"
16,1000 to 10000 nM,"CN1CCC(Nc2ccc(Cl)c(Cn3c4cc(-c5cnc(C(C)(C)O)nc5)ccc4c(=O)n3C)c2)C1=O (centres unmarked) [Example 109, 1-(2-Chloro-5-((1-methyl-2-oxopyrrolidin-3-yl)amino)benzyl)-6-(2-(2-hydroxypropan-2-yl)pyrimidin-5-yl)-2-methyl-1H-indazol-3(2H)-one]"
